# Tests used:
# Type in all cases: cell-based
# [1] = target: T1, EGFR exon 20 SVD Ins D770_N771 (Ba/F3 cells) (Homo sapiens, UniProt P00533, INS770SVD); assay: Inhibitor activity on EGFR-dependent cell growth (CellTiter-Glo, 72 h), Ba/F3 EGFR exon 20 SVD Ins; conditions: read-out: BaF3 SVD IC50
# T1 construct: expressed in transfected cells; host or cells: Ba/F3 (murine pro-B cells), retroviral transduction, puromycin selection, IL3-independent pool
# From the text: (§1) Example A. Inhibitor Activity on EGFR-Dependent Cell Growth
# (§2) Cell lines are generated by transducing Ba/F3 cells with retroviruses containing vectors with EGFR WT, EGFR L858R, EGFR exon 19del, EGFR L858R/C797S, EGFR exon 20 NPG Ins D770_N771, EGFR exon 20 ASV Ins V769_D770, EGFR exon 20 SVD Ins D770_N771, or EGFR exon 20 FQEA Ins A763_V764 genes and a puromycin selection marker. Transduced cells are selected with puromycin for 7 days and are then be transferred into culture media without Interleukin 3 (IL3). EGFR WT cells are maintained with supplemental EGF. Surviving cells are confirmed to express EGFR by Western blot and maintained as a pool. The IC50 date were included in Table 6 and Table 7.
# (§3) 1.1 Cells are harvested from flask into cell culture medium and the cell number counted.
# (§4) 1.2 Cells are diluted with culture medium to the desired density and 40 μL of cell suspension is added into each well of 384-well cell culture plate and the seeding density is 800 (FQEA, exon 19del), 600 (WT, NPG, L858R/C797S), or 400 (ASV, SVD, L858R) cells/well.
# (§5) 2 Compound Preparation and Treatment
# (§6) 2.1 Test compounds are dissolved to 10 mM in a DMSO stock solution. 45 μL of stock solution is transferred to a 384 polypropylene plate (pp-plate). Perform 3-fold, 10-point dilution via transferring 15 μL compound into 30 μL DMSO using a TECAN (EVO200) liquid handler.
# (§7) 2.2 Spin plates at room temperature at 1,000 RPM for 1 minute.
# (§8) 2.3 Transfer 120 nL of diluted compound from compound source plate into the cell plate.
# (§9) 2.4 After compound treatment for 72 hours, perform CTG detection for compound treatment plates as described in “Detection” section.
# (§10) 3.1 Plates are removed from incubators and equilibrated at room temperature for 15 minutes.
# (§11) 3.2 Thaw the CellTiter Glo reagents and allow to equilibrate to room temperature before the experiment.
# (§12) 3.3 Add 40 μL of CellTiter-Glo reagent into each well (at 1:1 to culture medium). Then place the plates at room temperature for 30 min followed by reading on EnVision.
# (§13) 4.1 Inhibition activity is calculated following the formula below:
# (§14) % Inhibition=100×(LumHC−LumSample)/(LumHC−LumLC) • where HC is obtained from cells treated with 0.1% DMSO only; and LC is obtained from culture medium only.
# (§15) 4.2 2. Calculate the IC50 by fitting the Curve using Xlfit (v5.3.1.3), equation 201.
# (§16) Y=Bottom+(Top−Bottom)/(1+10^((Log IC50−X)*HillSlope))
# [2] = target: T2, EGFR WT (Ba/F3 cells) (Homo sapiens, UniProt P00533); assay: Inhibitor activity on EGFR-dependent cell growth (CellTiter-Glo, 72 h), Ba/F3 EGFR WT; conditions: read-out: BaF3 WT IC50
# T2 construct: expressed in transfected cells; host or cells: Ba/F3 (murine pro-B cells), retroviral transduction, puromycin selection, maintained with EGF
# From the text: as §1, §2, §3, §4, §5, §6, §7, §8, §9, §10, §11, §12, §13, §14, §15, §16
# [3] = target: T3, EGFR exon 20 FQEA Ins A763_V764 (Ba/F3 cells) (Homo sapiens, UniProt P00533, INS763FQEA); assay: Inhibitor activity on EGFR-dependent cell growth (CellTiter-Glo, 72 h), Ba/F3 EGFR exon 20 FQEA Ins; conditions: read-out: BaF3 FQEA IC50
# T3 construct: expressed in transfected cells; host or cells: Ba/F3 (murine pro-B cells), retroviral transduction, puromycin selection, IL3-independent pool
# From the text: as §1, §2, §3, §4, §5, §6, §7, §8, §9, §10, §11, §12, §13, §14, §15, §16
# [4] = target: T4, EGFR exon 20 ASV Ins V769_D770 (Ba/F3 cells) (Homo sapiens, UniProt P00533, INS769ASV); assay: Inhibitor activity on EGFR-dependent cell growth (CellTiter-Glo, 72 h), Ba/F3 EGFR exon 20 ASV Ins; conditions: read-out: BaF3 ASV IC50
# T4 construct: expressed in transfected cells; host or cells: Ba/F3 (murine pro-B cells), retroviral transduction, puromycin selection, IL3-independent pool
# From the text: as §1, §2, §3, §4, §5, §6, §7, §8, §9, §10, §11, §12, §13, §14, §15, §16
# T2 sequence (P00533 25-1210): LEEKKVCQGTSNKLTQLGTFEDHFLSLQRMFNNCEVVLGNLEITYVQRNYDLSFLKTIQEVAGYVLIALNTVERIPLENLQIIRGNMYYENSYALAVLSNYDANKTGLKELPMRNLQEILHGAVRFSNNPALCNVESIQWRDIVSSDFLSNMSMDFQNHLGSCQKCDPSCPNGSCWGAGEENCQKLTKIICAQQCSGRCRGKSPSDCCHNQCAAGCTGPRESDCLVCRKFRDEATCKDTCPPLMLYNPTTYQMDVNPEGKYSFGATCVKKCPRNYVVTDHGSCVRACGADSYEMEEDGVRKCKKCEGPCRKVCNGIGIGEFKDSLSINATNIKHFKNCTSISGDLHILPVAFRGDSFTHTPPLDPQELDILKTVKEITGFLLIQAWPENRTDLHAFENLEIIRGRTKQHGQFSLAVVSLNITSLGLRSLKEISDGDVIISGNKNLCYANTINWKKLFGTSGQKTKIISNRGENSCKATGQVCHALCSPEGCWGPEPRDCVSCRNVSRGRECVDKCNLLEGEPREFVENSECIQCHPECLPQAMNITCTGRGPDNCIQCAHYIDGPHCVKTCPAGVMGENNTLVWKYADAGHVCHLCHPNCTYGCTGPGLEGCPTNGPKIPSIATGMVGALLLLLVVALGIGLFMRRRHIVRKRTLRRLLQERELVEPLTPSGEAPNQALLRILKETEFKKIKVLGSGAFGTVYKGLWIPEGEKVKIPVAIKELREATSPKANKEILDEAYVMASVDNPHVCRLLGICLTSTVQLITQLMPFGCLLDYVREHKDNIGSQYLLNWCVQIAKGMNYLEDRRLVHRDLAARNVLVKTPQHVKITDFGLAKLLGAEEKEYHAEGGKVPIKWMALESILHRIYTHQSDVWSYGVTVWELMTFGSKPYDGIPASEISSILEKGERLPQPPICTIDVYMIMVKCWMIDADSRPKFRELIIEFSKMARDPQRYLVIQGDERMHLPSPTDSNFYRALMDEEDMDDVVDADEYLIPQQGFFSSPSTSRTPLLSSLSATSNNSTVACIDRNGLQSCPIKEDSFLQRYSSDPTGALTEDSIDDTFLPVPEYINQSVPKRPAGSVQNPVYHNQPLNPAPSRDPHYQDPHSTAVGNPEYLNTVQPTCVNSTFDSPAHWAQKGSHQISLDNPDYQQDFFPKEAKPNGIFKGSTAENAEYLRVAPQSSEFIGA
# T1 sequence (P00533 with tags, fused parts or gaps INS770SVD): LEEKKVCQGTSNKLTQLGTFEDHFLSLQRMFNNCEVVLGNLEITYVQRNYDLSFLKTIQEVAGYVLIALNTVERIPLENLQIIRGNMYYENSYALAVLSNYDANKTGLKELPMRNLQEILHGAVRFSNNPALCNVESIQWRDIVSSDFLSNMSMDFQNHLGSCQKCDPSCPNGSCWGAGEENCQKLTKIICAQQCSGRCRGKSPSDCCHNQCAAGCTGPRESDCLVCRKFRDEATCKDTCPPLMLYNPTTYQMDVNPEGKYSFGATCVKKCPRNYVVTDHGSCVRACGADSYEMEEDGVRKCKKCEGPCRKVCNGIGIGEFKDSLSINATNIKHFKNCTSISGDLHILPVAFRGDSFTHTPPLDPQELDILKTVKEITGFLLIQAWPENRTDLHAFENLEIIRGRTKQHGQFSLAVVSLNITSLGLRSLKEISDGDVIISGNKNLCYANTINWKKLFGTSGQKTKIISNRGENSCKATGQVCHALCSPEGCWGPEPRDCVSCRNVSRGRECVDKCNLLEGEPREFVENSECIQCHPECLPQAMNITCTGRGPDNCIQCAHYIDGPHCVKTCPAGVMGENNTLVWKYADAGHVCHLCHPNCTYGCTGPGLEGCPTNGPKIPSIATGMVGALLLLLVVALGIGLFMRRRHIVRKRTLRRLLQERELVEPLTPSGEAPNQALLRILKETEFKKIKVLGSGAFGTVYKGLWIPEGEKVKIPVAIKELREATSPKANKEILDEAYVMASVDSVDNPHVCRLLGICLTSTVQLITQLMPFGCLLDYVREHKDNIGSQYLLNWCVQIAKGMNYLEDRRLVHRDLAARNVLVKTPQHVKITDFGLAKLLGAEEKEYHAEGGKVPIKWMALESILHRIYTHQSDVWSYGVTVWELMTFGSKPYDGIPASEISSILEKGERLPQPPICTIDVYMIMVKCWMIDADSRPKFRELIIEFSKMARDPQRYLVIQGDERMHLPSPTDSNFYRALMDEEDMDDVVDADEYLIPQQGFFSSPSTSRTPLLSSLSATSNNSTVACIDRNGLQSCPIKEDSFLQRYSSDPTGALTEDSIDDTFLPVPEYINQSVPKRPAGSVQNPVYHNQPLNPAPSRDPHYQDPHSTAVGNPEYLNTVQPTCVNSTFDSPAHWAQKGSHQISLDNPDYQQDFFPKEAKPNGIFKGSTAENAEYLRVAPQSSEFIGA
# T4 sequence (P00533 with tags, fused parts or gaps INS769ASV): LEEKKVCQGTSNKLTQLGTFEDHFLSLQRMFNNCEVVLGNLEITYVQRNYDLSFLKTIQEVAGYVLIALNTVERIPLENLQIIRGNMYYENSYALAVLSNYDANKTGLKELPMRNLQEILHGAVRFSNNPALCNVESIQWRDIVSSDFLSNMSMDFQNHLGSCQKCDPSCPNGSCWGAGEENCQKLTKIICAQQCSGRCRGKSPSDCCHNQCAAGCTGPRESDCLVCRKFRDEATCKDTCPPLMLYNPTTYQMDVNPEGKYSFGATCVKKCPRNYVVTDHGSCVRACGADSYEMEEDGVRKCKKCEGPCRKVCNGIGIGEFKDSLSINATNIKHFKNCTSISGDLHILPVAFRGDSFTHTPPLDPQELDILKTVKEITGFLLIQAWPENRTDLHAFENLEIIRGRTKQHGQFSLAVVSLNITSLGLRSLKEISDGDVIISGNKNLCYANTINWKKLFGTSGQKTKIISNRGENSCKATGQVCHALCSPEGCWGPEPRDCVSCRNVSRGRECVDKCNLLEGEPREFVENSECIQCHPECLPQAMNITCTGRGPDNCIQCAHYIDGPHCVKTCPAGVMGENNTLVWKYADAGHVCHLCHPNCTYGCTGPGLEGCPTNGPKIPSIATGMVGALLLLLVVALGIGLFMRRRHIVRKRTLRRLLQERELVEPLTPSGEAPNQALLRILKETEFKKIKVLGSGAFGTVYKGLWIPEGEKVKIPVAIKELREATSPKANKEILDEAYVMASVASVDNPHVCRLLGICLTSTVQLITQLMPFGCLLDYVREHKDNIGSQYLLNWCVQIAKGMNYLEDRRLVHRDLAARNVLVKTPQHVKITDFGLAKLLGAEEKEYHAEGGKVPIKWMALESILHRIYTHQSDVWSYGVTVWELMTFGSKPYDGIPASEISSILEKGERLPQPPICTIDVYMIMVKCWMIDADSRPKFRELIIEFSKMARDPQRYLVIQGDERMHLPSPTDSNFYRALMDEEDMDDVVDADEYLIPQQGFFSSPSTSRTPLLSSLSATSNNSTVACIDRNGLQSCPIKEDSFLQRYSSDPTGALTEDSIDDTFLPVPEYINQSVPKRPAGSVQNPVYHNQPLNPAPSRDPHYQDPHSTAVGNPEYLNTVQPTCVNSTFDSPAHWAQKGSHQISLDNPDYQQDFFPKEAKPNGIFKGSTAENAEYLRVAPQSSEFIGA
# T3 sequence (P00533 with tags, fused parts or gaps INS763FQEA): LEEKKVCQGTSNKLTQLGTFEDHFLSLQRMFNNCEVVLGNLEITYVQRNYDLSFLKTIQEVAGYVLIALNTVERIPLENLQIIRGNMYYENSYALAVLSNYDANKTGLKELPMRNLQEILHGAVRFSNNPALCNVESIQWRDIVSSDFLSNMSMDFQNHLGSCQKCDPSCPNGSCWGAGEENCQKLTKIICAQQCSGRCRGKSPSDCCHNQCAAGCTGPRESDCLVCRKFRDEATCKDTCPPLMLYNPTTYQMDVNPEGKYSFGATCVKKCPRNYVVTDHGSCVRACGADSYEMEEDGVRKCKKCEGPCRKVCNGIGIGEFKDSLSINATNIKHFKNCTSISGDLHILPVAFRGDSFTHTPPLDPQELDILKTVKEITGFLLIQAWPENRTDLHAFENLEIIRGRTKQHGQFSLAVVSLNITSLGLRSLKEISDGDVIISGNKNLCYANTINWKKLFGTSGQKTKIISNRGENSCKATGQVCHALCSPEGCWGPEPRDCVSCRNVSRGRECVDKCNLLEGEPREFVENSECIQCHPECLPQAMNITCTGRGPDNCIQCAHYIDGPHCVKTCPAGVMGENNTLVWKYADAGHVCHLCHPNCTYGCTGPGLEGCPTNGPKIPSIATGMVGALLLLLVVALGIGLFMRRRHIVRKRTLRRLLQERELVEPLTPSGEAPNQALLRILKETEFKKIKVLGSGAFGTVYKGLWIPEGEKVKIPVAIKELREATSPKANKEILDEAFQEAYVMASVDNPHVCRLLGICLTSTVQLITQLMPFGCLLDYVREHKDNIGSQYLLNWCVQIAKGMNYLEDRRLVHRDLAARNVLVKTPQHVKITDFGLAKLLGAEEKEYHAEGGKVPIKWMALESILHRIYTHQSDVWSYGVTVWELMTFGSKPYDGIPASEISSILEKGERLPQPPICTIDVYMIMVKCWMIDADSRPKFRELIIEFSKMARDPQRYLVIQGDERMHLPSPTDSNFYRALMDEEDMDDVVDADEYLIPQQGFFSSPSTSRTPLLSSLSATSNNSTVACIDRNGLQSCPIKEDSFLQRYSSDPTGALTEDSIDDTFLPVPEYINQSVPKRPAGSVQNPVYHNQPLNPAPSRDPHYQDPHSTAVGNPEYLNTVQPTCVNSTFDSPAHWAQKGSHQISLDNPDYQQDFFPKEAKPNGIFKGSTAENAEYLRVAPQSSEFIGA
compound,measurement,setting,value
"COc1ncc2nccc(-c3[nH]c4c(c3Nc3c(F)cccc3F)C(=O)NCC4)c2n1 [Compound 806, 3-[(2,6-difluorophenyl)amino]-2-[2-methoxypyrido[3,2-d]pyrimidin-8-yl]-1H,5H,6H,7H-pyrrolo[3,2-c]pyridin-4-one]",IC50,[1],> 1000 nM
same,IC50,[2],> 1000 nM
same,IC50,[3],100 to 1000 nM
same,IC50,[4],> 1000 nM
"COc1cc2nccc(-c3[nH]c4c(c3Nc3cccc(F)c3OC)C(=O)NCC4)c2nc1OC [Compound 807, 2-(6,7-dimethoxy-1,5-naphthyridin-4-yl)-3-[(3-fluoro-2-methoxyphenyl)amino]-1H,5H,6H,7H-pyrrolo[3,2-c]pyridin-4-one]",IC50,[1],< 100 nM
same,IC50,[2],< 100 nM
same,IC50,[3],< 100 nM
same,IC50,[4],< 100 nM
"COc1c(F)cccc1Nc1c(-c2ccnc3cc(F)cnc23)[nH]c2c1C(=O)NCC2 [Compound 825, 2-(7-fluoro-1,5-naphthyridin-4-yl)-3-[(3-fluoro-2-methoxyphenyl)amino]-1H,5H,6H,7H-pyrrolo[3,2-c]pyridin-4-one]",IC50,[1],< 100 nM
same,IC50,[2],> 1000 nM
same,IC50,[3],100 to 1000 nM
same,IC50,[4],100 to 1000 nM
COc1c(Cl)cccc1Nc1c(-c2ccnc3cc(F)cnc23)[nH]c2c1C(=O)NCC2 [Compound 826],IC50,[1],< 100 nM
same,IC50,[2],100 to 1000 nM
same,IC50,[3],< 100 nM
same,IC50,[4],< 100 nM
COc1c(F)cccc1Nc1c(-c2nnc3ccccn23)[nH]c2c1C(=O)NCC2 [compound 239],IC50,[1],> 1000 nM
same,IC50,[2],> 1000 nM
same,IC50,[3],> 1000 nM
same,IC50,[4],> 1000 nM
COc1c(F)cccc1Nc1c(-c2ccncc2)[nH]c2c1C(=O)NCC2 [compound 243],IC50,[1],100 to 1000 nM
same,IC50,[2],> 1000 nM
same,IC50,[3],100 to 1000 nM
same,IC50,[4],100 to 1000 nM
COc1c(F)cccc1Nc1c(-c2ccnc3[nH]ccc23)[nH]c2c1C(=O)NCC2 [compound 252],IC50,[1],100 to 1000 nM
same,IC50,[2],> 1000 nM
same,IC50,[3],100 to 1000 nM
same,IC50,[4],100 to 1000 nM
COc1c(F)cccc1Nc1c(-c2ccnc(SC)n2)[nH]c2c1C(=O)NCC2 [compound 255],IC50,[1],100 to 1000 nM
same,IC50,[2],100 to 1000 nM
same,IC50,[3],100 to 1000 nM
same,IC50,[4],100 to 1000 nM
COc1c(F)cccc1Nc1c(-c2ccnc(-c3cnn(C)c3)c2)[nH]c2c1C(=O)NCC2 [compound 259],IC50,[1],> 1000 nM
same,IC50,[2],> 1000 nM
same,IC50,[3],> 1000 nM
same,IC50,[4],> 1000 nM
COc1ccc2nccc(-c3[nH]c4c(c3Nc3cccc(Cl)c3OC)C(=O)NCC43CC3)c2n1 [compound 316],IC50,[1],< 100 nM
same,IC50,[2],100 to 1000 nM
same,IC50,[3],< 100 nM
same,IC50,[4],< 100 nM
COc1c(Cl)cccc1Nc1c(-c2ccnc3ccc(OC4CC4)nc23)[nH]c2c1C(=O)NCC21CC1 [compound 323],IC50,[1],< 100 nM
same,IC50,[2],100 to 1000 nM
same,IC50,[3],< 100 nM
same,IC50,[4],< 100 nM
COc1ncc2nccc(-c3[nH]c4c(c3Nc3cccc(F)c3OC)C(=O)NCC43CC3)c2n1 [compound 379],IC50,[1],< 100 nM
same,IC50,[2],100 to 1000 nM
same,IC50,[3],< 100 nM
same,IC50,[4],< 100 nM
COc1c(F)cccc1Nc1c(-c2ccnc3cnc(OC4CC4)nc23)[nH]c2c1C(=O)NCC2 [compound 413],IC50,[1],< 100 nM
same,IC50,[2],< 100 nM
same,IC50,[3],< 100 nM
same,IC50,[4],< 100 nM
